Key:
[1] = tested on: human derived keratinocytes; assay: ROS production in H2O2-treated keratinocytes (alpha-tocopherol, EGT, sodium PCA), ROS Detection Assay Kit; format: cell-based; conditions: alpha-tocopherol 0.001%, EGT 0.01%, Na PCA 0.01%; for % Decrease in ROS generated in keratinocyte: relative to 0.3 wt. % H2O2 treatment; for Fold Change, decrease in ROS generated in keratinocyte by antioxidant treatment: vs. 0.1 wt. % DMSO + 0.3 wt. % H2O2
Excerpt: Sample preparation: Human derived keratinocytes, plated on 24-well plates.
Cellular ROS/Superoxide Detection Assay Kit (Abcam—ab139476)

[2] = tested on: human derived keratinocytes; assay: ROS production in H2O2-treated keratinocytes (alpha-tocopherol, EGT, niacinamide), ROS Detection Assay Kit; format: cell-based; conditions: alpha-tocopherol (0.001%) [sic], EGT 0.01%, niacinamide 0.01%; for % Decrease in ROS generated in keratinocyte: relative to 0.3 wt. % H2O2 treatment; for Fold Change, decrease in ROS generated in keratinocyte by antioxidant treatment: vs. 0.1% DMSO + 0.3% H2O2
Experimental: Hydrogen peroxide treated cells were then treated with: alpha-tocopherol, ergothioneine and niacinamide, respectively and in combination. […] [table] […] [table]

[3] = cited from earlier work

Structure (SMILES)	% Decrease in ROS generated in keratinocyte [1] [%]	% Decrease in ROS generated in keratinocyte ([1]; listed as α-tocopherol) [%]	Fold Change, decrease in ROS generated in keratinocyte by antioxidant treatment [1]	% Decrease in ROS generated in keratinocyte [2] [%]	Fold Change, decrease in ROS generated in keratinocyte by antioxidant treatment [2]	% Decrease in ROS generated in keratinocyte ([1]; listed as Sodium PCA) [%]	Log P [3]
Cc1c(C)c2c(c(C)c1O)CC[C@@](C)(CCC[C@H](C)CCC[C@H](C)CCCC(C)C)O2 [Alpha-tocopherol, alpha-tocopherol]	70.72	70.72	4.21-fold decrease	20.79	0.4-fold decrease	–	–
C[N+](C)(C)[C@@H](Cc1c[nH]c(=S)[nH]1)C(=O)[O-] [EGT, Ergothioneine]	74.5	–	4.43-fold decrease	15.91	0.31-fold decrease	–	–
O=C1CCC(C(=O)[O-])N1.[Na+] (stereo not drawn) [Na PCA, Sodium PCA]	37.88	–	2.25-fold decrease	25.75	–	37.9	–
NC(=O)c1cccnc1 [Niacinamide]	–	–	–	–	0.24-fold decrease	–	–
O=C1O[C@H]([C@@H](O)CO)C(O)=C1O[C@H]1O[C@H](CO)[C@@H](O)[C@H](O)[C@H]1O [ascorbyl glucoside]	–	–	–	–	–	–	−2.5

— US20230320970A1, “Skin Care Compositions” (Colgate-Palmolive Company, priority 2022, published 2023)
